This is an account of results in ChEMBL document CHEMBL3580597 (J Med Chem, 2015).

One test concerns K562. Kind of test: cells. The class given is functional, cell-based. As to conditions: Homo sapiens, K562, 96 h.
For test [1], the target named is T1, Bromodomain-containing protein 3 (Homo sapiens, UniProt Q15059). Put plainly: Displacement of FAM-labeled ZBA248 from BRD3 BD2 (306 to 417 amino acid residues) (unknown origin) expressed in Rosetta2 DE3 cells after 30 mins by fluorescence polarization assay.
T1 sequence (Q15059 whole entry, the tested form may be a part): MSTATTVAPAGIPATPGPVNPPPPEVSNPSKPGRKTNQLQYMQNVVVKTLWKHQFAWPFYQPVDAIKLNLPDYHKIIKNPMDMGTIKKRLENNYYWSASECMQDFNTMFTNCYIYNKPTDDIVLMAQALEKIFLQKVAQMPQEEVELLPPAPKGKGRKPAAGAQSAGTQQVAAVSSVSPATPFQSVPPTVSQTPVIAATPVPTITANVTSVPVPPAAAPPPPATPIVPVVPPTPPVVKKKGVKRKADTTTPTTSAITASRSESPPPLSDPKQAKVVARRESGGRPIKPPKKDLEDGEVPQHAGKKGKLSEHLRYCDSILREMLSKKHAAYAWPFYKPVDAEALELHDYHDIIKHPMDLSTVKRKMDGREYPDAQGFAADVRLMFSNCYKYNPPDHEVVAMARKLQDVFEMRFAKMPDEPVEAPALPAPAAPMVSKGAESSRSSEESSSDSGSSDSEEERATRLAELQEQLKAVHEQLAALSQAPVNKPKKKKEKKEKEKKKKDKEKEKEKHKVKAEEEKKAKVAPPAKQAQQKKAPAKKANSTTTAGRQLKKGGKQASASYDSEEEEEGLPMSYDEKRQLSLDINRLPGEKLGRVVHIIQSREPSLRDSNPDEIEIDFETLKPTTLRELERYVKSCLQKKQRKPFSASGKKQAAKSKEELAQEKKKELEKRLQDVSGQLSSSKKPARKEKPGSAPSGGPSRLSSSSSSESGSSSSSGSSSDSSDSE
The target in test [2] is T1, Bromodomain-containing protein 3. Put plainly: biochemical. The class given is cell-based.
Test [3] shares this target. Put plainly: Binding affinity to biotinylated BRD3 BD2 (306 to 417 amino acid residues) (unknown origin) expressed in Rosetta2 DE3 cells by bio-layer interferometry method. (In general: Biolayer interferometry detects binding as a change in optical thickness at a sensor tip.)
The next test has as its target CREB-binding protein (Homo sapiens, UniProt Q92793). Kind of test: Binding affinity to biotinylated CREBBP (1043 to 1159 amino acid residues) (unknown origin) expressed in Rosetta2 DE3 cells by bio-layer interferometry method.
For test [4], the target named is T2, ATPase family AAA domain-containing protein 2 (Homo sapiens, UniProt Q6PL18).
T2 sequence (Q6PL18 whole entry): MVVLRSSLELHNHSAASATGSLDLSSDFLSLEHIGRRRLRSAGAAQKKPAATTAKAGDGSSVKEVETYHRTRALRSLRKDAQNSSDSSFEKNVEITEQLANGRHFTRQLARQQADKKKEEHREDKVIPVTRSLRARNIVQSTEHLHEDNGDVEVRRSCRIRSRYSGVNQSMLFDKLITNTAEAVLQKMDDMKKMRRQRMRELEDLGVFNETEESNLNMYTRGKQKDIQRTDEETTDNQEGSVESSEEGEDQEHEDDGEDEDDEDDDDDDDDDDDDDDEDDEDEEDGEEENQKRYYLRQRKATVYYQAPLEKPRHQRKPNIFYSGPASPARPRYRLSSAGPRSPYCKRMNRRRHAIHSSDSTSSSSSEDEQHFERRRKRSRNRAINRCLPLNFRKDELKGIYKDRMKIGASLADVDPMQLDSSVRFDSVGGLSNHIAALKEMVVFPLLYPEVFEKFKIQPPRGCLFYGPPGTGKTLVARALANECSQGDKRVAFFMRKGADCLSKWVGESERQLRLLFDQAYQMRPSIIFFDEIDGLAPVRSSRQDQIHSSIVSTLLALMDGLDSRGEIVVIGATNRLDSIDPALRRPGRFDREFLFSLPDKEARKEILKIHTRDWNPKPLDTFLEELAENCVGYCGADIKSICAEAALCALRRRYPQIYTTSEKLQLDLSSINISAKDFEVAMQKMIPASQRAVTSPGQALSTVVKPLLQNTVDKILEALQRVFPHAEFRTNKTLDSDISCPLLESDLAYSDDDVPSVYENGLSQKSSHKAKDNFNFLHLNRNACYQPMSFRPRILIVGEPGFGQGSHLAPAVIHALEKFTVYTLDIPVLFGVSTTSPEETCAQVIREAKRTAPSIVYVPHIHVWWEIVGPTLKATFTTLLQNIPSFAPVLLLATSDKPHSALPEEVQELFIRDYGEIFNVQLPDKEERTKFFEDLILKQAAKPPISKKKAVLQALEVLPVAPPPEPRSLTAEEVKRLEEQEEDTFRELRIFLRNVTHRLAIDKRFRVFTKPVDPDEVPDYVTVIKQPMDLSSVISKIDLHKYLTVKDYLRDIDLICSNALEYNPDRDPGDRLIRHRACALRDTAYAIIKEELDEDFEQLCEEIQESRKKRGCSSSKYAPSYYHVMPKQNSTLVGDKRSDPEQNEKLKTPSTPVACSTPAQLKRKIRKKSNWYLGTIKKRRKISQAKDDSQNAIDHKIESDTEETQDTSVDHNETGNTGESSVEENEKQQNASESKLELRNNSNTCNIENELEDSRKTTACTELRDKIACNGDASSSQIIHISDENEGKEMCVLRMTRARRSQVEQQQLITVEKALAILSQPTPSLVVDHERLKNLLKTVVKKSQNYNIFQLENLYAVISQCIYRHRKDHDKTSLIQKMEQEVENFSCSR
Kind of test: Binding affinity to biotinylated ATAD2A (981 to 1108 amino acid residues) (unknown origin) expressed in Rosetta2 DE3 cells by bio-layer interferometry method.

A further test has as its system MV4-11. Kind of test: cells. The class given is functional, cell-based. The note with it: Homo sapiens, MV4-11, 96 h.
Test [5] deals with T1, Bromodomain-containing protein 3. Kind of test: Displacement of FAM-labeled ZBA248 from BRD3 BD1 (24 to 144 amino acid residues) (unknown origin) expressed in Rosetta2 DE3 cells after 30 mins by fluorescence polarization assay. (Fluorescence polarisation rises when a labelled molecule tumbles more slowly, as on binding a larger partner.)
Test [6] has as its target T3, Bromodomain-containing protein 4 (Homo sapiens, UniProt O60885). Put plainly: Displacement of FAM-labeled ZBA248 from BRD4 BD1 (44 to 168 amino acid residues) (unknown origin) expressed in Rosetta2 DE3 cells after 30 mins by fluorescence polarization assay.
In test [7] the target is T3, Bromodomain-containing protein 4. Put plainly: Displacement of FAM-labeled ZBA248 from BRD4 BD2 (333 to 460 amino acid residues) (unknown origin) expressed in Rosetta2 DE3 cells after 30 mins by fluorescence polarization assay.
In test [8] the target is T4, Bromodomain-containing protein 2 (Homo sapiens, UniProt P25440). Put plainly: Displacement of FAM-labeled ZBA248 from BRD2 BD1 (72 to 205 amino acid residues) (unknown origin) expressed in Rosetta2 DE3 cells after 30 mins by fluorescence polarization assay.
T4 sequence (P25440 whole entry, the tested form may be a part): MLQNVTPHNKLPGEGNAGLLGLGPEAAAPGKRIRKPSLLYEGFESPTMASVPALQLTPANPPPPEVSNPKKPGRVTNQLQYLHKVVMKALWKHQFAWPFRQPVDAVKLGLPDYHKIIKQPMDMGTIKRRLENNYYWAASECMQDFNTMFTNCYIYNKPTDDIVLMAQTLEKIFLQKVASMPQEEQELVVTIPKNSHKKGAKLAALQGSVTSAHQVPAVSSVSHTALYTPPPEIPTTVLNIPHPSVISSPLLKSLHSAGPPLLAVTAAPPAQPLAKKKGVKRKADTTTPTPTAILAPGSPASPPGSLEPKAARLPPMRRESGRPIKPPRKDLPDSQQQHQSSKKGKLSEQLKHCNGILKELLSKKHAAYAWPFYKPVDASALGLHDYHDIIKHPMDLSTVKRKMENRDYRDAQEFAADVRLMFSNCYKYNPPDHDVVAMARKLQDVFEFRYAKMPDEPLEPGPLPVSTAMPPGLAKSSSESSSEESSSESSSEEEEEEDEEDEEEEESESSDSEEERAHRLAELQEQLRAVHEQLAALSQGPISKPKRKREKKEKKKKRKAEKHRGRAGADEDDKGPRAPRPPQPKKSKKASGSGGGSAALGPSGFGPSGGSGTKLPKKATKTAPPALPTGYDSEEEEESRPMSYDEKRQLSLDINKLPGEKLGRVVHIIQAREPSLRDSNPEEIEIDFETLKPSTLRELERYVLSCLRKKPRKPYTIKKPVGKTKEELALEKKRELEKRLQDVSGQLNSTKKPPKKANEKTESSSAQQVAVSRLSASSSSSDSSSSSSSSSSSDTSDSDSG
In test [9] the target is T4, Bromodomain-containing protein 2. Put plainly: Displacement of FAM-labeled ZBA248 from BRD2 BD2 (349 to 460 amino acid residues) (unknown origin) expressed in Rosetta2 DE3 cells after 30 mins by fluorescence polarization assay.

What is called IC50 is the concentration that gives 50% inhibition. By Ki is commonly meant the dissociation constant of the complex between target and ligand, obtained from inhibition or displacement. For orientation: Kd means the free concentration of one partner at which half of the binding sites on the other are occupied at equilibrium, for simple one-to-one binding. The low end stands for tighter binding, the high end for weaker binding.

Sequence of CREB-binding protein (Q92793 whole entry, the tested form may be a part): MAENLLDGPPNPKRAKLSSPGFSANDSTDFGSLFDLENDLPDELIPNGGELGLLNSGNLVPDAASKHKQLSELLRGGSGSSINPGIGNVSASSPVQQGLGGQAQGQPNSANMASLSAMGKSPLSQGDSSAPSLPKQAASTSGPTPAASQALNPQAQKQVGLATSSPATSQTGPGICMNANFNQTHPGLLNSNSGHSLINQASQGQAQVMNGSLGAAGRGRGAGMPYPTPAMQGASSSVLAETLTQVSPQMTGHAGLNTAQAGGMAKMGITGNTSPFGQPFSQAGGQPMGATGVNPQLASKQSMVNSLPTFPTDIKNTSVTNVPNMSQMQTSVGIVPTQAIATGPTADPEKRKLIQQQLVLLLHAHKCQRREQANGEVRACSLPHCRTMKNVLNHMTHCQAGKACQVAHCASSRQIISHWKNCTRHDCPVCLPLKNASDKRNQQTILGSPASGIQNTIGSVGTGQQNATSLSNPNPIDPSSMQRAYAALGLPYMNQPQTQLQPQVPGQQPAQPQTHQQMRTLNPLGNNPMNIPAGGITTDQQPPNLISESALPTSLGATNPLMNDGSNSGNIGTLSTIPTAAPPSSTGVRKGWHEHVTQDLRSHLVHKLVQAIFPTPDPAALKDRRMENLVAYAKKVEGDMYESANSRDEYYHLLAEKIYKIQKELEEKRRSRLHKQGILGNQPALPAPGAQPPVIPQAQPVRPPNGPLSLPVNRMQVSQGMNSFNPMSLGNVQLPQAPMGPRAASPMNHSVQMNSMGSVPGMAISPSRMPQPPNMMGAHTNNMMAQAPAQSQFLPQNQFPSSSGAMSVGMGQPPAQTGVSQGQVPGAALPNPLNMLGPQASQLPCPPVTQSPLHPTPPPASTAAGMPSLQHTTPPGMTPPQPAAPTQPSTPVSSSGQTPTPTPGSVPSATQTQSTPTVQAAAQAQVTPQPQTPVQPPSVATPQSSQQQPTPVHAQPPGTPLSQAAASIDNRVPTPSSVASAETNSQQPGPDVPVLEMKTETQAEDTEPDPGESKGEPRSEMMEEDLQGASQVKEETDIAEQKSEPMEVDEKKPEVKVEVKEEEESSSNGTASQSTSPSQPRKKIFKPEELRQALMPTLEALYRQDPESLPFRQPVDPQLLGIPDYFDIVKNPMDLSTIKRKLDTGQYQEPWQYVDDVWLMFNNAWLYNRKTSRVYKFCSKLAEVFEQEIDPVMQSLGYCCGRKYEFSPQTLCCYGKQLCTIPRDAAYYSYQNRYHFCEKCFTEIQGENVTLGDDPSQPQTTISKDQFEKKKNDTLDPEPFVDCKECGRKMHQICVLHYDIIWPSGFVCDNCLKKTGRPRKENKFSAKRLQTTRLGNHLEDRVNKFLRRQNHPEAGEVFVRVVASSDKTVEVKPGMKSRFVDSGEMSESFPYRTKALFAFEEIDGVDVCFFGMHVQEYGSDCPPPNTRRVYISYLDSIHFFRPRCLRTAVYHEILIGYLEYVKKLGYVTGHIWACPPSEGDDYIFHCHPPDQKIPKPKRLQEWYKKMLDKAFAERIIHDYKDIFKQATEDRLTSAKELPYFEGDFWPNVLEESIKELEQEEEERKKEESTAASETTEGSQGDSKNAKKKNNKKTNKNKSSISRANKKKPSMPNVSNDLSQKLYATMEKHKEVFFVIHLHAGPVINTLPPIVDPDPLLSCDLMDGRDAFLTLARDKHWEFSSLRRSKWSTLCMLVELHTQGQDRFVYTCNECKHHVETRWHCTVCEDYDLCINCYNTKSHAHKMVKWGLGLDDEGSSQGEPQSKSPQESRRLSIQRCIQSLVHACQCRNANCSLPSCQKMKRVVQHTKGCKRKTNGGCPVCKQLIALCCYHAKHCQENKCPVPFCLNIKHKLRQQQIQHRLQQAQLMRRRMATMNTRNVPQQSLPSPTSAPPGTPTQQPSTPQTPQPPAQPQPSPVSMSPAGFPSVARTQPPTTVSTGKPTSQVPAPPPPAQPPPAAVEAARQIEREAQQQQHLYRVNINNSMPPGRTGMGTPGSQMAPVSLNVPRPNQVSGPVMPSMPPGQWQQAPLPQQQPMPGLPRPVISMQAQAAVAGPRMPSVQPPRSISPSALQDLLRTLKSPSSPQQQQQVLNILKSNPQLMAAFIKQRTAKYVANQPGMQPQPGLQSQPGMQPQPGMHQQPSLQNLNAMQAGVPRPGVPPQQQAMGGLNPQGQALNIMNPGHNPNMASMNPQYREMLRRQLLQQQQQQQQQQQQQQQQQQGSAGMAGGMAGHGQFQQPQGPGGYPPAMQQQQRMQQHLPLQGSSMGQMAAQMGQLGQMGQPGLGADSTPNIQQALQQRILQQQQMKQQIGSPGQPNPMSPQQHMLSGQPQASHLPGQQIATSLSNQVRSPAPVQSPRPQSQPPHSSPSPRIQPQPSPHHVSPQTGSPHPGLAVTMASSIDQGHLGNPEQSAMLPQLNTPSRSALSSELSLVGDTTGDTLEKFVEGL

`Cc1sc2c(c1C)C(c1ccc(Cl)cc1)=N[C@@H](CC(=O)OC(C)(C)C)c1nnc(C)n1-2` came in with an IC50 in the test with K562 above 2000 nM.
On to `COc1cc2c(cc1-c1c(C)noc1C)ncc1[nH]c(=O)n([C@H](C)c3ccccn3)c12`, for which the Ki in [1] was 22.3 nM; in test [5], 7.2 nM. The Kd in [2] was 29.8 nM; in test [3], 40.5 nM; on CREB-binding protein it was 3080 nM; in test [4] it was above 10000 nM. Besides, the IC50 in the test on MV4-11 is 162 nM; with K562 it was above 2000 nM.
In the case of `COc1cc2c(cc1-c1c(C)noc1C)[nH]c1ccncc12`, the IC50 came out at 4590 nM in test [6] and 2690 nM in test [7].
The like results for `COc1cc2c(cc1-c1c(C)noc1C)[nH]c1ccnc(Cl)c12` were, in that order, 862 nM and 579 nM.
On to `CCc1noc(C)c1-c1cc2[nH]c3ccnc(Cl)c3c2cc1OC`, for which the values for the IC50 in test [6] and in [7] were 3870 nM and 1820 nM, respectively. Also, the Ki in test [6] came out at 1240 nM; in test [7], 478 nM.
As to `CCc1onc(C)c1-c1cc2[nH]c3ccnc(Cl)c3c2cc1OC`, in [6], the IC50 is 9440 nM and the Ki came out at 2810 nM. In addition, in test [7], the IC50 turned out to be 13800 nM and the Ki stood at 2180 nM.
The like results for `CCc1noc(CC)c1-c1cc2[nH]c3ccnc(Cl)c3c2cc1OC` were, in that order, above 10000 nM, above 10000 nM, 74000 nM and 8320 nM.
For `COc1cc2c(cc1-c1c(C)n[nH]c1C)[nH]c1ccnc(Cl)c12`, in test [6], the IC50 stood at 4870 nM and the affinity, expressed as Ki, was 1730 nM. Further, in [7], the IC50 was found to be 2580 nM and the Ki stood at 867 nM.
For `COc1cc2c(cc1-c1c(C)nn(C)c1C)[nH]c1ccnc(Cl)c12` the same measures were 14000 nM, 4840 nM, 6170 nM and 1950 nM.
For `COc1cc2c(cc1-c1c(C)noc1C)[nH]c1ccnc(-c3c(C)noc3C)c12` the same measures were 134 nM, 47.8 nM, 221 nM and 70.1 nM.
Regarding `COc1cc2c(cc1-c1c(C)noc1C)[nH]c1ccnc(-c3c(C)n[nH]c3C)c12`, the results for the IC50 in [6] and in test [7] were 276 nM and 324 nM, respectively.
The like results for `COc1cc2c(cc1-c1c(C)noc1C)[nH]c1ccnc(-c3cn[nH]c3)c12` were, in that order, 702 nM and 658 nM.
Turning to `COc1cc2c(cc1-c1c(C)noc1C)[nH]c1ccnc(-c3c(C)nn(-c4ccccc4)c3C)c12`, in [6], the IC50 was 301 nM and affinity was put at a Ki of 103 nM. In [7], this molecule came in with an IC50 of 316 nM and a Ki of 98.1 nM.
In the case of `CCc1n[nH]c(CC)c1-c1nccc2[nH]c3cc(-c4c(C)noc4C)c(OC)cc3c12`, the IC50 was above 2000 nM in the test on K562, 131 nM in [6] and 61.9 nM in [7]. The Ki in test [6] came to 44.1 nM; in [7], 16.1 nM; in test [8], 21 nM; in test [9] it was 15.4 nM.
For `CCNC(=O)C[C@@H]1N=C(c2ccc(Cl)cc2)c2cc(OC)ccc2-n2c(C)nnc21` [MOLIBRESIB], the Kd (on CREB-binding protein; in test [4]) was above 10000 nM each time.
